Reference: patent publication US20040037843A1, “Inducing cellular immune responses to prostate cancer antigens using peptide and nucleic acid compositions” (priority 2003, published 2004)

System: .221A2.1 peptide-loaded target cells and cells expressing endogenous antigen
Assay: Primary in vitro CTL induction with peptide-pulsed DC, CTL lytic activity by 51Cr release
Format: cell-based, human
Conditions: immunogenicity, positive/tested; for A2 peptide: CTL recognition of the peptide; for A2 native: CTL recognition of native (wild-type) target
Protocol: Testing was performed using the following methodology:
Cells that express an antigen of interest, or transfectants comprising the gene encoding the antigen of interest, can be used as target cells to test the ability of peptide-specific CTLs to recognize endogenous antigen.
The monocytes are purified by plating 10×10^6 PBMC/well in a 6-well plate. After 2 hours at 37° C., the non-adherent cells are removed by gently shaking the plates and aspirating the supernatants. The wells are washed a total of three times with 3 ml RPMI to remove most of the non-adherent and loosely adherent cells. Three ml of complete medium containing 50 ng/ml of GM-CSF and 1,000 U/ml of IL-4 are then added to each well. TNFα is added to the DCs on day 6 at 75 ng/ml and the cells are used for CTL induction cultures on day 7.
Induction of CTL with DC and Peptide: CD8+ T-cells are isolated by positive selection with Dynal imnmunomagnetic beads (Dynabeads® M-450) and the detacha-bead® reagent. Typically about 200-250×10^6 PBMC are processed to obtain 24×10^6 CD8^+T-cells (enough for a 48-well plate culture). Briefly, the PBMCs are thawed in RPMI with 30 μg/ml DNAse, washed once with PBS containing 1% human AB serum and resuspended in PBS/1% AB serum at a concentration of 20×10^6 cells/ml. The magnetic beads are washed 3 times with PBS/AB serum, added to the cells (140 μl beads/20×10^6 cells) and incubated for 1 hour at 4° C. with continuous mixing. The beads and cells are washed 4× with PBS/AB serum to remove the nonadherent cells and resuspended at 100×10^6 cells/ml (based on the original cell number) in PBS/AB serum containing 100 μl/ml detacha-bead® reagent and 30 μg/ml DNAse. The mixture is incubated for 1 hour at room temperature with continuous mixing. The beads are washed again with PBS/AB/DNAse to collect the CD8+ T-cells. The DC are collected and centrifuged at 1300 rpm for 5-7 minutes, washed once with PBS with 1% BSA, counted and pulsed with 40 μg/ml of peptide at a cell concentration of 1-2×10^6/ml in the presence of 3 μg/ml β2-microglobulin for 4 hours at 20° C. The DC are then irradiated (4,200 rads), washed 1 time with medium and counted again.
Setting up induction cultures: 0.25 ml cytokine-generated DC (@1×10^5 cells/ml) are co-cultured with 0.25 ml of CD8+ T-cells (@2×10^6 cell/ml) in each well of a 48-well plate in the presence of 10 ng/ml of IL-7. Recombinant human IL10 is added the next day at a final concentration of 10 ng/ml and rhuman IL2 is added 48 hours later at 10 IU/mL.
Restimulation of the induction cultures with peptide-pulsed adherent cells: Seven and fourteen days after the primary induction the cells are restimulated with peptide-pulsed adherent cells. The PBMCS are thawed and washed twice with RPMI and DNAse. The cells are resuspended at 5×10^6 cells/ml and irradiated at ˜4200 rads. The PBMCs are plated at 2×10^6 in 0.5 ml complete medium per well and incubated for 2 hours at 37° C. The plates are washed twice with RPMI by tapping the plate gently to remove the nonadherent cells and the adherent cells pulsed with 10 μg/ml of peptide in the presence of 3 μg/ml β2 microglobulin in 0.25 ml RPMI/5% AB per well for 2 hours at 37° C. Peptide solution from each well is aspirated and the wells are washed once with RPMI. Most of the media is aspirated from the induction cultures (CD8+ cells) and brought to 0.5 ml with fresh media. The cells are then transferred to the wells containing the peptide-pulsed adherent cells. Twenty four hours later rhuman IL10 is added at a final concentration of 10 ng/ml and rhuman IL2 is added the next day and again 2-3 days later at 50 IU/ml (Tsai et al., Critical Reviews in Immunology 18(1-2):65-75, 1998). Seven days later the cultures are assayed for CTL activity in a ^51Cr release assay. In some experiments the cultures are assayed for peptide-specific recognition in the in situ IFNγ ELISA at the time of the second restimulation followed by assay of endogenous recognition 7 days later. […]

Question: `CC[C@H](C)[C@H](NC(=O)[C@H](CC(=O)O)NC(=O)[C@H](Cc1ccccc1)NC(=O)[C@H](CC(C)C)NC(=O)[C@H](C)N)C(=O)N[C@@H](CCC(=O)O)C(=O)N[C@@H](CO)C(=O)N[C@@H](CCCCN)C(=O)N[C@H](C(=O)O)C(C)C` [Peptide 1129.08] was tested. Which A2 peptide did it give?
Answer: The A2 peptide was 2/2.

Question: `CC[C@H](C)[C@H](NC(=O)[C@@H]1CCCN1C(=O)[C@H](Cc1c[nH]cn1)NC(=O)[C@@H](NC(=O)[C@@H]1CCCN1C(=O)[C@@H](NC(=O)[C@H](CO)NC(=O)[C@@H]1CCCN1C(=O)[C@H](CC(C)C)NC(=O)CN)[C@@H](C)CC)C(C)C)C(=O)O` [Peptide 1129.10] was tested. Which A2 peptide did it give?
Answer: The A2 peptide was 2/4.

Question: For `CSCC[C@H](NC(=O)[C@H](C)NC(=O)[C@H](CO)NC(=O)[C@H](CCSC)NC(=O)[C@H](CC(C)C)NC(=O)[C@@H](N)[C@@H](C)O)C(=O)N[C@H](C(=O)N[C@@H](CC(N)=O)C(=O)N[C@@H](CC(C)C)C(=O)O)[C@@H](C)O` [Peptide 1177.01], which A2 peptide is on record?
Answer: The A2 peptide was 2/2.

Question: `CSCC[C@H](N)C(=O)N[C@@H](CC(C)C)C(=O)N[C@@H](CC(C)C)C(=O)N[C@@H](CCCNC(=N)N)C(=O)N[C@@H](CC(C)C)C(=O)N[C@@H](CO)C(=O)N[C@@H](CCC(=O)O)C(=O)N1CCC[C@H]1C(=O)N[C@H](C(=O)O)C(C)C` [Peptide 1389.10] was tested. Which A2 native did it give?
Answer: The A2 native was 1/3.

Question: And the A2 peptide?
Answer: The A2 peptide was 3/3.

Question: Which results are given for `CC(C)C[C@H](NC(=O)[C@H](C)N)C(=O)NCC(=O)N[C@H](C(=O)N[C@H](C(=O)N[C@@H](CS)C(=O)N[C@@H](Cc1ccc(O)cc1)C(=O)N[C@H](C(=O)O)C(C)C)[C@@H](C)O)[C@@H](C)O` [Peptide 1389.14]?
Answer: A2 native: 1/3; A2 peptide: 2/3

Question: With `CC(C)C[C@H](NC(=O)[C@H](Cc1ccccc1)NC(=O)[C@H](Cc1ccccc1)NC(=O)CNC(=O)CNC(=O)[C@H](C)NC(=O)[C@H](CC(C)C)NC(=O)[C@@H](N)C(C)C)C(=O)N[C@H](C(=O)O)C(C)C` [Peptide 1389.20] as the molecule, how does the A2 native read?
Answer: Its A2 native is 1/2.

Question: And the A2 peptide?
Answer: Its A2 peptide is 1/2.

Question: How did the A2 native turn out when `CC[C@H](C)[C@H](NC(=O)[C@H](CO)NC(=O)[C@@H]1CCCN1C(=O)[C@H](CC(C)C)NC(=O)CN)C(=O)N1CCC[C@H]1C(=O)N[C@H](C(=O)N[C@@H](Cc1c[nH]cn1)C(=O)N1CCC[C@H]1C(=O)N[C@H](C(=O)O)C(C)C)C(C)C` [Peptide 1389.24] was run?
Answer: The A2 native was 3/4.

Question: And the A2 peptide?
Answer: Its A2 peptide is 4/4.

Question: With `CC[C@H](C)[C@H](NC(=O)[C@H](CO)NC(=O)[C@H](CC(C)C)NC(=O)[C@H](CC(C)C)NC(=O)[C@@H](N)CC(C)C)C(=O)N[C@@H](C)C(=O)N[C@@H](CC(C)C)C(=O)N[C@@H](CO)C(=O)N[C@H](C(=O)O)C(C)C` [Peptide 1418.13] as the molecule, how does the A2 native read?
Answer: Its A2 native is 2/2.

Question: And the A2 peptide?
Answer: Its A2 peptide is 2/2.

Question: `CC(C)C[C@H](NC(=O)[C@H](Cc1c[nH]c2ccccc12)NC(=O)[C@H](Cc1ccccc1)NC(=O)[C@H](Cc1ccccc1)NC(=O)[C@@H](NC(=O)[C@@H](N)CC(C)C)[C@@H](C)O)C(=O)N[C@@H](CC(=O)O)C(=O)N[C@@H](CCCNC(=N)N)C(=O)N[C@@H](CO)C(=O)N[C@H](C(=O)O)C(C)C` [Peptide 1418.23] was tested. Which A2 native did it give?
Answer: Its A2 native is 2/3.

Question: What about the A2 peptide of the same molecule?
Answer: The A2 peptide was 3/3.

Question: How did the A2 native turn out when `CC[C@H](C)[C@H](N)C(=O)N[C@H](C(=O)N[C@@H](CC(C)C)C(=O)N[C@@H](Cc1c[nH]c2ccccc12)C(=O)N[C@@H](CCC(N)=O)C(=O)N1CCC[C@H]1C(=O)N[C@H](C(=O)N1CCC[C@H]1C(=O)N[C@H](C(=O)O)C(C)C)[C@@H](C)CC)[C@@H](C)O` [Peptide 1418.25] was run?
Answer: Its A2 native is 2/3.

Question: And the A2 peptide?
Answer: The A2 peptide was 3/3.

Question: How did the A2 peptide turn out when `CC(C)C[C@H](NC(=O)[C@H](C)N)C(=O)NCC(=O)N[C@H](C(=O)N[C@H](C(=O)N[C@@H](CS)C(=O)N[C@@H](Cc1ccc(O)cc1)C(=O)N[C@@H](C)C(=O)O)[C@@H](C)O)[C@@H](C)O` [Peptide 1419.01] was run?
Answer: The A2 peptide was 1/2.

Question: With `CC(C)C[C@H](NC(=O)[C@H](CO)NC(=O)[C@H](CCCNC(=N)N)NC(=O)[C@@H]1CCCN1C(=O)[C@H](CCCNC(=N)N)NC(=O)[C@H](CC(C)C)NC(=O)[C@@H](N)Cc1ccccc1)C(=O)N[C@@H](CCC(N)=O)C(=O)N[C@@H](CS)C(=O)N[C@H](C(=O)O)C(C)C` [Peptide 1419.07] as the molecule, how does the A2 peptide read?
Answer: Its A2 peptide is 1/3.

Question: For `CC(C)C[C@H](NC(=O)[C@@H](N)C(C)C)C(=O)N[C@H](C(=O)N[C@@H](Cc1c[nH]cn1)C(=O)N1CCC[C@H]1C(=O)N[C@@H](CCC(N)=O)C(=O)N[C@@H](Cc1c[nH]c2ccccc12)C(=O)N[C@H](C(=O)N[C@@H](CC(C)C)C(=O)N[C@H](C(=O)N[C@H](C(=O)O)C(C)C)[C@@H](C)O)C(C)C)C(C)C` [Peptide 1419.11], which A2 native is on record?
Answer: Its A2 native is 2/2.

Question: What about the A2 peptide of the same molecule?
Answer: Its A2 peptide is 2/2.

Question: Which results are given for `CSCC[C@H](NC(=O)[C@H](CC(C)C)NC(=O)[C@@H](N)CC(=O)O)C(=O)N[C@@H](CC(C)C)C(=O)N[C@@H](CC(C)C)C(=O)N[C@@H](CCCNC(=N)N)C(=O)N[C@@H](CC(C)C)C(=O)N[C@@H](CO)C(=O)N[C@@H](CCC(=O)O)C(=O)N1CCC[C@H]1C(=O)N[C@H](C(=O)O)C(C)C` [Peptide 1419.13]?
Answer: A2 native: 2/2; A2 peptide: 2/2

Question: With `CSCC[C@H](NC(=O)[C@H](CC(=O)O)NC(=O)[C@H](CC(N)=O)NC(=O)[C@H](CO)NC(=O)[C@H](CC(C)C)NC(=O)[C@H](CC(C)C)NC(=O)[C@H](Cc1c[nH]cn1)NC(=O)[C@H](CC(C)C)NC(=O)[C@@H](N)CO)C(=O)N[C@@H](CS)C(=O)N[C@@H](C)C(=O)O` [Peptide 1419.14] as the molecule, how does the A2 peptide read?
Answer: The A2 peptide was 1/3.

Question: With `CC(C)C[C@H](NC(=O)[C@@H]1CCCN1)C(=O)N[C@H](C(=O)N[C@@H](CS)C(=O)N[C@@H](CC(N)=O)C(=O)NCC(=O)N[C@H](C(=O)N[C@@H](CC(C)C)C(=O)N[C@@H](CCC(N)=O)C(=O)NCC(=O)N[C@H](C(=O)O)C(C)C)C(C)C)C(C)C` [Peptide 1419.17] as the molecule, how does the A2 native read?
Answer: The A2 native was 2/2.

Question: And the A2 peptide?
Answer: The A2 peptide was 2/2.

Question: With `CC(C)C[C@H](NC(=O)[C@H](CC(=O)O)NC(=O)[C@@H](NC(=O)[C@H](CS)NC(=O)[C@H](CCC(N)=O)NC(=O)[C@H](CC(C)C)NC(=O)[C@@H](N)CCCCN)C(C)C)C(=O)N[C@@H](Cc1c[nH]cn1)C(=O)N[C@H](C(=O)N[C@H](C(=O)O)C(C)C)C(C)C` [Peptide 1419.24] as the molecule, how does the A2 native read?
Answer: Its A2 native is 1/2.

Question: What about the A2 peptide of the same molecule?
Answer: Its A2 peptide is 1/2.

Question: What does the source list for `CC[C@H](C)[C@H](NC(=O)[C@H](Cc1c[nH]c2ccccc12)NC(=O)[C@@H](NC(=O)[C@@H](NC(=O)[C@H](CO)NC(=O)[C@H](CC(C)C)NC(=O)[C@@H](NC(=O)[C@H](CC(C)C)NC(=O)[C@@H](N)Cc1ccccc1)[C@@H](C)O)C(C)C)[C@@H](C)O)C(=O)NCC(=O)N[C@H](C(=O)O)C(C)C` [Peptide 1419.27]?
Answer: A2 native: 3/3; A2 peptide: 3/3

Question: For `CC(C)C[C@H](NC(=O)[C@H](C)N)C(=O)N[C@@H](Cc1ccccc1)C(=O)N1CCC[C@H]1C(=O)N1CCC[C@H]1C(=O)N[C@@H](CCC(=O)O)C(=O)NCC(=O)N[C@H](C(=O)N[C@@H](CO)C(=O)N[C@H](C(=O)O)C(C)C)C(C)C` [Peptide 1419.61], which A2 native is on record?
Answer: The A2 native was 1/3.

Question: What about the A2 peptide of the same molecule?
Answer: The A2 peptide was 1/3.
